From patent US8461328B2, “Tricyclic heterocyclic compounds, compositions and methods of use thereof” (Genentech, Inc., priority 2010, dated 2013)

Experiments:
Type in all cases: biochemical
[1] = target: T1, JAK2 (Homo sapiens, UniProt O60674); assay: JAK2 inhibition (Table 4); conditions: read-out: JAK2 Ki
T1 construct: made in house; host or cells: SF9 insect cells (baculovirus)

[2] = target: T2, JAK3 (Homo sapiens, UniProt P52333); assay: JAK3 inhibition (Table 4); conditions: read-out: JAK3 Ki
T2 construct: made in house; host or cells: SF9 insect cells (baculovirus)

[3] = target: T3, TYK2 (Homo sapiens, UniProt P29597); assay: TYK2 inhibition (Table 4)
T3 construct: made in house; host or cells: SF9 insect cells (baculovirus)
T3 sequence (P29597 873-1187): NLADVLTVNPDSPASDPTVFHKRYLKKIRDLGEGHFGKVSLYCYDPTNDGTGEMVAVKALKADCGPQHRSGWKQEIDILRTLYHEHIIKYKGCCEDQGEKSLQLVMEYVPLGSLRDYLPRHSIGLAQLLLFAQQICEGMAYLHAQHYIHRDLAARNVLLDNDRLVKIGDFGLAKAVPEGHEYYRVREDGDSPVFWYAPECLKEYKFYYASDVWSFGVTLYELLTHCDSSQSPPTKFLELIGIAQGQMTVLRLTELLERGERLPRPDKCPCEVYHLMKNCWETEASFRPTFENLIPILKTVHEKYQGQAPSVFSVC

[4] = target: T4, JAK1 (Homo sapiens, UniProt P23458); assay: JAK1 inhibition (Table 4); conditions: read-out: JAK1 Ki
T4 construct: made in house; host or cells: SF9 insect cells (baculovirus)
T4 sequence (P23458 852-1154): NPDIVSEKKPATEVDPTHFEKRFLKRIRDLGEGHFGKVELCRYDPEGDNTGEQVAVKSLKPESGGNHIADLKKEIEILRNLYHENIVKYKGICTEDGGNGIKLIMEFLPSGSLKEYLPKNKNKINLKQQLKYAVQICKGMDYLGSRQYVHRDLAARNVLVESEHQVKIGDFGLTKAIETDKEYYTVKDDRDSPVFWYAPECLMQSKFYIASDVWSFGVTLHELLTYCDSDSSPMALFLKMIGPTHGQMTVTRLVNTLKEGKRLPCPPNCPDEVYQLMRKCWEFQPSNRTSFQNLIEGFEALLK

T1 sequence (O60674 812-1132): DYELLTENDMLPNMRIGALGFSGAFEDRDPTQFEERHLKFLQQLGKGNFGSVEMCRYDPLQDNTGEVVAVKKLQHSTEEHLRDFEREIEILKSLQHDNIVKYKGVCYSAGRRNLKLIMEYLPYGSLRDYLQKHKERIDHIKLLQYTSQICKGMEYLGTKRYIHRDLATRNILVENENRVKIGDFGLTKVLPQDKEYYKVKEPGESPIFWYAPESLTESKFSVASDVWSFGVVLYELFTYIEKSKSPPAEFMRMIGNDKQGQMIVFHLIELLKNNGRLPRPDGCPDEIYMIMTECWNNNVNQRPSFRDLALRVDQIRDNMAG
T2 sequence (P52333 783-1124): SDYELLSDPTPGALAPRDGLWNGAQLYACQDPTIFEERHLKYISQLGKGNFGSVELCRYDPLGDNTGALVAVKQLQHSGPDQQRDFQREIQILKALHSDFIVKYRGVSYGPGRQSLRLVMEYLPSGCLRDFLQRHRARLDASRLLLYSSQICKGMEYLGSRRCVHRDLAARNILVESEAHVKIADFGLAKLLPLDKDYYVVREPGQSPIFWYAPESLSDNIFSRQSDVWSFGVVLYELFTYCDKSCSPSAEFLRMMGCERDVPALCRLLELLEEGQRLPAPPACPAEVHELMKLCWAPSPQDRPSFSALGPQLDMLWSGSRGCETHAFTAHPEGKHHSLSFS

Row | Ki [1] [nM] | Ki [2] [nM] | Ki [3] [nM] | Ki [4] [nM] | Structure (SMILES)
1 | 21.6 | 11.5 | 37.8 | 7.57 | Cc1nc2cnc3[nH]ccc3c2n1[C@@H]1C[C@@H]2CC[C@H]1O2 (relative stereo) [Example 684, Endo-2-Methyl-1-(7-oxa-bicyclo[2.2.1]hept-2-yl)-1,6-dihydro-1,2,3,5,6-tetraaza-as-indacene]
2 | 292 | 704 | 647 | 154 | c1cc2c(ncc3ncn(C4CCCCNC4)c32)[nH]1 (single isomer, unassigned) [Example 110, 1-Azepan-3-yl-1,6-dihydro-1,2,3,5,6-tetraaza-as-indacene]
3 | 81.8 | 194 | 106 | 13.6 | c1cc2c(ncc3ncn(C4CCCCNC4)c32)[nH]1 (single isomer, unassigned) [Example 110a, 1-Azepan-3-yl-1,6-dihydro-1,2,3,5,6-tetraaza-as-indacene]
4 | 10.8 | 63.4 | 17.5 | 4.09 | Cc1nc2cnc3[nH]ccc3c2n1C1CCC2CC(=O)NC2C1 (single isomer, unassigned) [Example 112, 6-(2-Methyl-6H-1,2,3,5,6-tetraaza-as-indacen-1-yl)-octahydro-indol-2-one]
5 | 58.3 | 300 | 630 | 64.4 | Cc1nc2cnc3[nH]ccc3c2n1C1CCC2CC(=O)NC2C1 (single isomer, unassigned) [Example 112a, 6-(2-Methyl-6H-1,2,3,5,6-tetraaza-as-indacen-1-yl)-octahydro-indol-2-one]
6 | 435 | 154 | 955 | 167 | CCC(COC)n1c(C(C)O)nc2cnc3[nH]ccc3c21 (single isomer, unassigned) [Example 182, 1-[1-(1-Methoxymethyl-propyl)-1,6-dihydro-1,2,3,5,6-tetraaza-as-indacen-2-yl]-ethanol]
7 | 888 | 351 | 3180 | 291 | CCC(COC)n1c(C(C)O)nc2cnc3[nH]ccc3c21 (single isomer, unassigned) [Example 182a, 1-[1-(1-Methoxymethyl-propyl)-1,6-dihydro-1,2,3,5,6-tetraaza-as-indacen-2-yl]-ethanol]
8 | 202 | 3240 | 667 | 32.5 | CN1CCOCC1C(=O)N1CCC(n2cnc3cnc4[nH]ccc4c32)CC1 (single isomer, unassigned) [Example 197, (4-Methyl-morpholin-3-yl)-[4-(6H-1,2,3,5,6-tetraaza-as-indacen-1-yl)-piperidin-1-yl]-methanone]
9 | 217 | 1930 | 2720 | 122 | CN1CCOCC1C(=O)N1CCC(n2cnc3cnc4[nH]ccc4c32)CC1 (single isomer, unassigned) [Example 197a, (4-Methyl-morpholin-3-yl)-[4-(6H-1,2,3,5,6-tetraaza-as-indacen-1-yl)-piperidin-1-yl]-methanone]
10 | 113 | 331 | 186 | 24.1 | NC1CCCC(n2cnc3cnc4[nH]ccc4c32)C1 (single isomer, unassigned) [Example 365, 3-(6H-1,3,5,6-Tetraaza-as-indacen-1-yl)-cyclohexylamine]
11 | 69.8 | 381 | 299 | 45.9 | NC1CCCC(n2cnc3cnc4[nH]ccc4c32)C1 (single isomer, unassigned) [Example 366, 3-(6H-1,3,5,6-Tetraaza-as-indacen-1-yl)-cyclohexylamine]
12 | 90.4 | 453 | 157 | 42.2 | NC1CCCC(n2cnc3cnc4[nH]ccc4c32)C1 (single isomer, unassigned) [Example 367, 3-(6H-1,3,5,6-Tetraaza-as-indacen-1-yl)-cyclohexylamine]
13 | 19.3 | 419 | 130 | 27.8 | NC1CCCC(n2cnc3cnc4[nH]ccc4c32)C1 (single isomer, unassigned) [Example 368, 3-(6H-1,3,5,6-Tetraaza-as-indacen-1-yl)-cyclohexylamine]
14 | 74.1 | 43.1 | 341 | 89.3 | CC(C1CCCO1)n1cnc2cnc3[nH]ccc3c21 (single isomer, unassigned) [Example 417, 1-[1-(Tetrahydro-furan-2-yl)-ethyl]-1,6-dihydro-1,3,5,6-tetraaza-as-indacene]
15 | 29.9 | 33.5 | 173 | 34.8 | CC(C1CCCO1)n1cnc2cnc3[nH]ccc3c21 (single isomer, unassigned) [Example 418, 1-[1-(Tetrahydro-furan-2-yl)-ethyl]-1,6-dihydro-1,3,5,6-tetraaza-as-indacene]
16 | 56.7 | 26.2 | 335 | 59.6 | Cc1nc2cnc3[nH]ccc3c2n1C(C)C1CCCO1 (single isomer, unassigned) [Example 426, 2-Methyl-1-[1-(tetrahydro-furan-2-yl)-ethyl]-1,6-dihydro-1,3,5,6-tetraaza-as-indacene]
17 | 59.9 | 282 | 127 | 34 | c1cc2c(ncc3nnn(C4CCCOC4)c32)[nH]1 (single isomer, unassigned) [Example 459, 1-(Tetrahydro-pyran-3-yl)-1,6-dihydro-1,2,3,5,6-pentaaza-as-indacene]
18 | 17.3 | 313 | 76.5 | 8.36 | c1cc2c(ncc3nnn(C4CCCOC4)c32)[nH]1 (single isomer, unassigned) [Example 460, 1-(Tetrahydro-pyran-3-yl)-1,6-dihydro-1,2,3,5,6-pentaaza-as-indacene]
19 | 1390 | 1180 | 1580 | 354 | C[C@H](O)c1nc2cnc3[nH]ccc3c2n1C1CCCOC1 (single isomer, unassigned) [Example 461]
20 | 538 | 1160 | 1370 | 90 | C[C@H](O)c1nc2cnc3[nH]ccc3c2n1C1CCCOC1 (single isomer, unassigned) [Example 462]
21 | 74.9 | 191 | 55.5 | 12.2 | OCc1nc2cnc3[nH]ccc3c2n1C1CCCOC1 (single isomer, unassigned) [Example 463, [1-(Tetrahydro-pyran-3-yl)-1,6-dihydro-1,3,5,6-tetraaza-as-indacen-2-yl]-methanol]
22 | 224 | 412 | 187 | 56.9 | OCc1nc2cnc3[nH]ccc3c2n1C1CCCOC1 (single isomer, unassigned) [Example 464, [1-(Tetrahydro-pyran-3-yl)-1,6-dihydro-1,3,5,6-tetraaza-as-indacen-2-yl]-methanol]
23 | 49.9 | 50.8 | 70.5 | 23.5 | c1cc2c(ncc3ncn(C4CCCOC4)c32)[nH]1 (single isomer, unassigned) [Example 465, 1-(Tetrahydro-pyran-3-yl)-1,6-dihydro-1,3,5,6-tetraaza-as-indacene]
24 | 24.6 | 75.6 | 61.8 | 9.66 | c1cc2c(ncc3ncn(C4CCCOC4)c32)[nH]1 (single isomer, unassigned) [Example 466, 1-(Tetrahydro-pyran-3-yl)-1,6-dihydro-1,3,5,6-tetraaza-as-indacene]
25 | 4.4 | 19.6 | 47.1 | 2.07 | CC(C)(C)OC(=O)NC1CCCC(n2cnc3cnc4[nH]ccc4c32)C1 (single isomer, unassigned) [Example 474, [3-(6H-1,3,5,6-Tetraaza-as-indacen-1-yl)-cyclohexyl]-carbamic acid tert-butyl ester]
26 | 110 | 21.9 | 2250 | 32.4 | CC(C)(C)OC(=O)NC1CCCC(n2cnc3cnc4[nH]ccc4c32)C1 (single isomer, unassigned) [Example 475, [3-(6H-1,3,5,6-Tetraaza-as-indacen-1-yl)-cyclohexyl]-carbamic acid tert-butyl ester]
27 | 29.1 | 68.4 | 302 | 12.3 | CC(C)(C)OC(=O)NC1CCCC(n2cnc3cnc4[nH]ccc4c32)C1 (single isomer, unassigned) [Example 476, [3-(6H-1,3,5,6-Tetraaza-as-indacen-1-yl)-cyclohexyl]-carbamic acid tert-butyl ester]
28 | 171 | 236 | 799 | 40.7 | CC(C)(C)OC(=O)NC1CCCC(n2cnc3cnc4[nH]ccc4c32)C1 (single isomer, unassigned) [Example 477, [3-(6H-1,3,5,6-Tetraaza-as-indacen-1-yl)-cyclohexyl]-carbamic acid tert-butyl ester]
29 | 125 | 527 | 425 | 83.3 | CC(=O)NC1CCCC(n2cnc3cnc4[nH]ccc4c32)C1 (single isomer, unassigned) [Example 478, N-[3-(6H-1,3,5,6-Tetraaza-as-indacen-1-yl)-cyclohexyl]-acetamide]
